Laboratory results reported in US9351965B2, “Indazole derivatives useful as ERK inhibitors” (Merck Sharp & Dohme Corp., priority 2010, dated 2016).

Target: fully phosphorylated, active Mouse ERK2 protein (Mus musculus (Mouse), UniProt P63085)
Assay: Active ERK2 (aERK) IMAP assay
Assay type: biochemical
Conditions: IMAP fluorescence polarization; 30 μM ATP; 30 minute pre-incubation

Sequence of fully phosphorylated, active Mouse ERK2 protein (P63085 whole entry): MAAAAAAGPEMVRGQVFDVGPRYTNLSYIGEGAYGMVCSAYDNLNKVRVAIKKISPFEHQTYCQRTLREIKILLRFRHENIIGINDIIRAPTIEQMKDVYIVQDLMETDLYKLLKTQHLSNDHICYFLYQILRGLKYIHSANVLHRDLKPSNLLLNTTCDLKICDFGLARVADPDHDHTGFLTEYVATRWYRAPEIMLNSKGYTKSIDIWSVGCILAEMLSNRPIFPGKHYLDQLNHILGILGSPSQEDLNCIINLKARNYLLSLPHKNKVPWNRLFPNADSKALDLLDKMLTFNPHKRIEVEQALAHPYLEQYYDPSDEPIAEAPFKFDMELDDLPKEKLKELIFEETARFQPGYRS

Row | Compound | IC50
1 | Cn1cc2cc(-c3n[nH]c4ccc(C(=O)NC5CCCC(Cn6cnc7ccccc76)C5)cc34)ccc2n1 (centres unmarked) [compound 109, N-[3-(1H-benzimidazol-1-ylmethyl)cyclohexyl]-3-(2-methyl-2H-indazol-5-yl)-1H-indazole-5-carboxamide] | 21.1 nM
2 | Cc1cc(-c2n[nH]c3ccc(C(=O)NC4CCCC(O)(C(O)c5ccccc5)C4)cc23)ccn1 (centres unmarked) [compound 51, N-[3-hydroxy-3-(hydroxyphenylmethyl)cyclohex-yl]-3-(2-methyl-4-pyridinyl)-1H-indazole-5-carboxamide (diasterimer 3)] | 204 nM
3 | Cc1cc(-c2n[nH]c3ccc(C(=O)NC4CCCC(Cn5cnc6cccnc65)C4)cc23)ccn1 (centres unmarked) [compound 118, N-[3-(3H-imidazo[4,5-b]pyridin-3-ylmethyl)cyclohexyl]-3-(2-methyl-4-pyridinyl)-1H-indazole-5-carboxamide] | 60.8 nM
4 | Cc1cc(-c2n[nH]c3ccc(C(=O)N[C@@H]4CCCC(F)(Cc5ccccc5F)C4)cc23)ccn1 (single isomer, unassigned; isomer 1) [compound 55] | 1000 nM
5 | Cc1cc(-c2n[nH]c3ccc(C(=O)NC4CCCC(Cn5cc6cccnc6n5)C4)cc23)ccn1 (centres unmarked) [compound 113, 3-(2-methyl-4-pyridinyl)-N-[3-(2H-pyrazolo[3,4-b]pyridin-2-ylmethyl)cyclohexyl]-1H-indazole-5-carboxamide] | 164 nM
6 | O=C(N[C@H]1CCC[C@@](O)(Cc2ccccc2F)C1)c1ccc2[nH]nc(-c3ccc4nccn4c3)c2c1 (relative stereo) [compound 9, N-[trans-3-[(2-fluorophenyl)methyl]-3-hydroxycyclohexyl]-3-imidazo[1,2-a]pyridin-6-yl-1H-indazole-5-carboxamide] | 48.7 nM
7 | Cc1cc(-c2n[nH]c3ccc(C(=O)NC4CCCC(CO)(Cc5ccccc5F)C4)cc23)ccn1 (centres unmarked) [compound 133, N-[3-[(2-fluorophenyl)methyl]-3-(hydroxymethyl)cyclohexyl]-3-(2-methyl-4-pyridinyl)-1H-indazole-5-carboxamide] | 109 nM
8 | Cc1cc(-c2n[nH]c3ccc(C(=O)NC4CCCC(CO)(Cc5c(F)cccc5F)C4)cc23)ccn1 (centres unmarked) [compound 137, N-[3-[(2,6-difluorophenyl)methyl]-3-(hydroxymethyl)cyclohexyl]-3-(2-methyl-4-pyridinyl)-1H-indazole-5-carboxamide] | 445 nM
9 | Cc1cc(-c2n[nH]c3ccc(C(=O)NC4CCCC(O)(Cc5c(F)cccc5F)C4)cc23)ccn1 (single isomer, unassigned) [compound 5, N-[3-[(2,6-difluorophenyl)methyl]-3-hydroxycyclohexyl]-3-(2-methyl-4-pyridinyl)-1H-indazole-5-carboxamide] | 1000 nM
10 | Cc1cc(-c2n[nH]c3ccc(C(=O)NC4CCCC(CO)(Cc5ccc(F)cc5F)C4)cc23)ccn1 (centres unmarked) [compound 134, N-[3-[(2,4-difluorophenyl)methyl]-3-(hydroxymethyl)cyclohexyl]-3-(2-methyl-4-pyridinyl)-1H-indazole-5-carboxamide] | 436 nM
11 | Cc1cc(-c2n[nH]c3ccc(C(=O)NC4CCCC(O)(Cc5c(F)cccc5F)C4)cc23)ccn1 (single isomer, unassigned) [compound 8, N-[3-[(2,6-difluorophenyl)methyl]-3-hydroxycyclohexyl]-3-(2-methyl-4-pyridinyl)-1H-indazole-5-carboxamide] | 1000 nM
12 | Cc1cc(-c2n[nH]c3ccc(C(=O)NN4CCCC(Oc5ccccc5Cl)C4)cc23)ccn1 (centres unmarked) [compound 36, N-[3-(2-chlorophenoxy)-1-piperidinyl]-3-(2-methyl-4-pyridinyl)-1H-indazole-5-carboxamide] | 40.4 nM
13 | Cc1cc(-c2n[nH]c3ccc(C(=O)N[C@@H]4CCC[C@@](O)(Cn5cncn5)C4)cc23)ccn1 (relative stereo) [compound 64, N-[cis-3-hydroxy-3-(1H-1,2,4-triazol-1-ylmethyl)cyclohexyl]-3-(2-methyl-4-pyridinyl)-1H-indazole-5-carboxamide] | 99.9 nM
14 | Cc1cc(-c2n[nH]c3ccc(C(=O)NN4CCCC(CO)(Oc5ccc(F)cc5)C4)cc23)ccn1 (centres unmarked) [compound 148, N-[3-(4-fluorophenoxy)-3-(hydroxymethyl)-1-piperidinyl]-3-(2-methyl-4-pyridinyl)-1H-indazole-5-carboxamide] | 445 nM
15 | CC(C)Oc1cc(-c2n[nH]c3ccc(C(=O)N[C@@H]4CCC[C@](O)(Cc5ccccc5F)C4)cc23)ccn1 [compound 16, N-[3(S)-[(2-fluorophenyl)methyl]-3-hydroxy-1(R)-cyclohexyl]-3-[2-(1-methylethoxy)-4-pyridinyl]-1H-indazole-5-carboxamide] | 301 nM
16 | Cn1cc2cc(-c3n[nH]c4ccc(C(=O)N[C@@H]5CCC[C@@](O)(Cn6cccn6)C5)cc34)ccc2n1 (relative stereo) [compound 60, N-[cis-3-hydroxy-3-(1H-pyrazol-1-ylmethyl)cyclohexyl]-3-(2-methyl-2H-indazol-5-yl)-1H-indazole-5-carboxamide] | 151 nM
17 | Cc1cc(-c2n[nH]c3ccc(C(=O)NC4CCCC(Oc5c(F)cccc5F)C4)cc23)ccn1 (centres unmarked) [compound 32, N-[3-(2,6-difluorophenoxy)cyclohexyl]-3-(2-methyl-4-pyridinyl)-1H-indazole-5-carboxamide] | 573 nM
18 | Cn1cc2cc(-c3n[nH]c4ccc(C(=O)N[C@@H]5CCC[C@](O)(Cn6cnc7ccccc76)C5)cc34)ccc2n1 (relative stereo) [compound 61, N-[trans-3-(1H-benzimidazol-1-ylmethyl)-3-hydroxycyclohexyl]-3-(2-methyl-2H-indazol-5-yl)-1H-indazole-5-carboxamide] | 19.3 nM
19 | Cc1cc(-c2n[nH]c3ccc(C(=O)N[C@H]4CCC[C@](O)(Cn5ncc6ccc(F)cc65)C4)cc23)ccn1 (relative stereo) [compound 107, N-[cis-3-[(6-fluoro-1H-indazol-1-yl)methyl]-3-hydroxycyclohexyl]-3-(2-methyl-4-pyridinyl)-1H-indazole-5-carboxamide] | 362 nM
20 | COc1cccc(F)c1C[C@@]1(O)CCC[C@@H](NC(=O)c2ccc3[nH]nc(-c4ccc5nc(C)sc5c4)c3c2)C1 [compound 24, N-[3(S)-[(2-fluoro-6-methoxyphenyl)methyl]-3-hydroxy-1(R)-cyclohexyl]-3-(2-methyl-6-benzothiazolyl)-1H-indazole-5-carboxamide] | 8.9 nM
21 | Cc1cc(-c2n[nH]c3ccc(C(=O)N[C@H]4CCC[C@](O)(Cn5ncc6c(F)cccc65)C4)cc23)ccn1 (relative stereo) [compound 103, N-[cis-3-[(4-fluoro-1H-indazol-1-yl)methyl]-3-hydroxycyclohexyl]-3-(2-methyl-4-pyridinyl)-1H-indazole-5-carboxamide] | 21.3 nM
22 | Cc1cc(-c2n[nH]c3ccc(C(=O)N[C@H]4CCC[C@](O)(Cn5ncc6ccc(C(F)(F)F)cc65)C4)cc23)ccn1 (relative stereo) [compound 106, N-[cis-3-hydroxy-3-[[6-(trifluoromethyl)-1H-indazol-1-yl]methyl]cyclohexyl]-3-(2-methyl-4-pyridinyl)-1H-indazole-5-carboxamide] | 107 nM
23 | Cc1cc(-c2n[nH]c3ccc(C(=O)NC4CCCC(CO)(Cc5c(F)cccc5F)C4)cc23)ccn1 (centres unmarked) [compound 129, N-[3-[(2,6-difluorophenyl)methyl]-3-(hydroxymethyl)cyclohexyl]-3-(2-methyl-4-pyridinyl)-1H-indazole-5-carboxamide] | 636 nM
